Laboratory results as given in patent US7858820B2, “Solid compositions suitable for oral administration containing non-hygroscopic salts of L-carnitine and the alkanoyl L-carnitines with taurine chloride and glycine chloride” (Sigma-Tau Industrie Farmaceutiche Riunite S.p.A., priority 2001, dated 2010).
Counter-ions that a name gives are not always drawn.

What was measured:
[1] = milieu with a high relative humidity content; U.S. Pat. No. 4,602,039; cited from earlier work
[2] = Hygroscopicity of the solid salts; type: physicochemical; details: for hygroscopicity of the starting material: remark in brackets on the reagent used

Row | Compound | hygroscopicity of the starting material [2] | also measured
1 | C[N+](C)(C)C[C@H](O)CC(=O)[O-].O=C(O)/C=C/C(=O)O [L-carnitine fumarate] | – | hygroscopicity of a prior-art salt [1]: highly non-hygroscopic
2 | CC(=O)O[C@H](CC(=O)[O-])C[N+](C)(C)C [acetyl L-carnitine inner salt] | hygroscopic | –
3 | CCC(=O)O[C@H](CC(=O)[O-])C[N+](C)(C)C [propionyl L-carnitine inner salt] | hygroscopic | –
4 | NCC(=O)O [glycine hydrochloride] | hygroscopic | –
5 | CCC(=O)O[C@H](CC(=O)O)C[N+](C)(C)C [Example 2, Propionyl L-Carnitine Salt with Taurine Chloride] | – | hygroscopicity of the isolated solid ([2]; white crystalline solid as obtained): non-hygroscopic
